The values that follow come from PubChem BioAssay AID1845194 (Molecular Pharmacology Branch, DTP, NCI, 2023).

“And” between values parts separate entries of the source, which are not always exact repeats. Equal values may be shown once.

As usually defined, the IC50 is the midpoint of a concentration-inhibition curve. By viability, T/C is commonly meant the ratio of treated to control.

For this assay, the system named is 287954-098-R-J1 tumor spheroid viability. Kind of assay: Anticancer human tumor 287954-098-R-J1 patient-derived Ewing sarcoma cell line growth inhibition. Particulars: spheroids with HUVEC and MSC; for viability, T/C: stronger effect = lower value. The method, boiled down:
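Complex spheroids of malignant cells with endothelial cells and mesenchymal stem cells; agents alone or combined, from near clinical Cmax (or 10 microM if unknown) down in half-log steps, 0.25% DMSO final.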
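Further: spheroids exposed to compound for 7 days before viability readout.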
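Wherever viability, T/C is given: luminescent signal taken as surrogate of viable cell content; 100% = DMSO vehicle control viability and lower means growth inhibition.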

Take `O=C(c1cc(Cc2n[nH]c(=O)c3ccccc23)ccc1F)N1CCN(C(=O)C2CC2)CC1` + Cn1nnc2c(C(N)=O)ncn2c1=O: the IC50 stood at 20600 nM (curve of first compound, second compound 1 µM); 20900 nM (curve of first compound, second compound 3.16 µM); 10400 nM (curve of first compound, second compound 10 µM); 3410 nM (curve of first compound, second compound 31.6 µM); 621 nM (curve of first compound, second compound 100 µM). The viability, T/C reads like this: (second compound 1 µM, first compound 0.0949 µM) 97.5%; (second compound 1 µM, first compound 0.3 µM) 97.2%; (second compound 1 µM, first compound 0.949 µM) 106%; (second compound 1 µM, first compound 3 µM) 95.1%; (second compound 1 µM, first compound 9.49 µM) 86.2%; (second compound 1 µM, first compound 30 µM) 32.5%. Moreover, the viability, T/C runs as follows: (second compound 3.16 µM, first compound 0.0949 µM) 104%; (second compound 3.16 µM, first compound 0.3 µM) 101%; (second compound 3.16 µM, first compound 0.949 µM) 98.2%; (second compound 3.16 µM, first compound 3 µM) 105%; (second compound 3.16 µM, first compound 9.49 µM) 85.1%; (second compound 3.16 µM, first compound 30 µM) 34%. Also, the viability, T/C (second compound 10 µM, first compound 0.0949 µM) is 107%; the viability, T/C (second compound 10 µM, first compound 0.3 µM) was 107%; the viability, T/C (second compound 10 µM, first compound 0.949 µM) is 93.6%; the viability, T/C (second compound 10 µM, first compound 3 µM) is 99%; the viability, T/C (second compound 10 µM, first compound 9.49 µM) was 53.7%; the viability, T/C (second compound 10 µM, first compound 30 µM) was 4.76%. Further, the viability, T/C runs as follows: (second compound 31.6 µM, first compound 0.0949 µM) 107%; (second compound 31.6 µM, first compound 0.3 µM) 103%; (second compound 31.6 µM, first compound 0.949 µM) 106%; (second compound 31.6 µM, first compound 3 µM) 56%; (second compound 31.6 µM, first compound 9.49 µM) 2.11%; (second compound 31.6 µM, first compound 30 µM) 1.97%. The viability, T/C runs as follows: (second compound 100 µM, first compound 0.0949 µM) 104%; (second compound 100 µM, first compound 0.3 µM) 88.5%; (second compound 100 µM, first compound 0.949 µM) 27.7%; (second compound 100 µM, first compound 3 µM) 2.13%; (second compound 100 µM, first compound 9.49 µM) 1.91%; (second compound 100 µM, first compound 30 µM) 1.8%.

Consider `CC1COCCN1c1cc(-c2ccnn2C)c2ccnc(-c3ccn[nH]3)c2n1` (stereo not drawn), for which the viability, T/C is 107% and 114% and 106% (compound 0.0316 µM); 78.3% and 89.9% and 97.7% (compound 0.1 µM); 22.6% and 21.9% and 32.2% (compound 0.316 µM); 6.79% and 3.9% and 8.44% (compound 1 µM); 1.99% and 1.74% and 1.91% (compound 3.16 µM); 3.29% and 2.26% and 3.3% (compound 10 µM). Besides, the IC50 (curve of compound) is 180 nM and 197 nM and 232 nM.

`COc1cc2c(cc1O)CCNC21CSC2c3c(OC(C)=O)c(C)c4c(c3C(COC1=O)N1C(O)C3Cc5cc(C)c(OC)c(O)c5C(C21)N3C)OCO4` (stereo not drawn): the viability, T/C is 106% [middle of 10 runs] (compound 30 pM); 107% [middle of 10 runs] (compound 94.9 pM); 105% [middle of 10 runs] (compound 0.0003 µM); 0.29% [middle of 9 runs] (compound 0.000949 µM); 0.17% [middle of 8 runs] (compound 0.003 µM). In addition, the IC50 (compound alone, run of 10/25/2019) is 0.548 nM [middle of 9 runs].

Take `Cc1sc2c(c1C)C(c1ccc(Cl)cc1)=NC(CC(=O)Nc1ccc(O)cc1)c1nnc(C)n1-2` (stereo not drawn) + COc1cc2c(cc1O)CCNC21CSC2c3c(OC(C)=O)c(C)c4c(c3C(COC1=O)N1C(O)C3Cc5cc(C)c(OC)c(O)c5C(C21)N3C)OCO4: the IC50 is 529 nM (curve of first compound, second compound 30 pM); 428 nM (curve of first compound, second compound 94.9 pM); 77.3 nM (curve of first compound, second compound 0.0003 µM); below 9.49 nM (curve of first compound, second compound 0.000949 µM); below 9.49 nM (curve of first compound, second compound 0.003 µM). In addition, the viability, T/C reads like this: (second compound 30 pM, first compound 0.00949 µM) 110%; (second compound 30 pM, first compound 0.03 µM) 120%; (second compound 30 pM, first compound 0.0949 µM) 111%; (second compound 30 pM, first compound 0.3 µM) 97.2%; (second compound 30 pM, first compound 0.949 µM) 1.47%; (second compound 30 pM, first compound 3 µM) 1.05%. Also, the viability, T/C (second compound 94.9 pM, first compound 0.00949 µM) was 109%; the viability, T/C (second compound 94.9 pM, first compound 0.03 µM) is 117%; the viability, T/C (second compound 94.9 pM, first compound 0.0949 µM) is 112%; the viability, T/C (second compound 94.9 pM, first compound 0.3 µM) was 65.4%; the viability, T/C (second compound 94.9 pM, first compound 0.949 µM) was 14.5%; the viability, T/C (second compound 94.9 pM, first compound 3 µM) was 1.03%. For the same compound, the viability, T/C (second compound 0.0003 µM, first compound 0.00949 µM) was 105%; the viability, T/C (second compound 0.0003 µM, first compound 0.03 µM) is 93.7%; the viability, T/C (second compound 0.0003 µM, first compound 0.0949 µM) was 39%; the viability, T/C (second compound 0.0003 µM, first compound 0.3 µM) was 12.4%; the viability, T/C (second compound 0.0003 µM, first compound 0.949 µM) was 0.78%; the viability, T/C (second compound 0.0003 µM, first compound 3 µM) was 0.57%. In addition, the viability, T/C runs as follows: (second compound 0.000949 µM, first compound 0.00949 µM) 0.33%; (second compound 0.000949 µM, first compound 0.03 µM) 0.34%; (second compound 0.000949 µM, first compound 0.0949 µM) 0.25%; (second compound 0.000949 µM, first compound 0.3 µM) 0.07%; (second compound 0.000949 µM, first compound 0.949 µM) 0.03%; (second compound 0.000949 µM, first compound 3 µM) 0.11%. For the same compound, the viability, T/C is 0.17% (second compound 0.003 µM, first compound 0.00949 µM); 0.16% (second compound 0.003 µM, first compound 0.03 µM); 0.1% (second compound 0.003 µM, first compound 0.0949 µM); 0.11% (second compound 0.003 µM, first compound 0.3 µM); 0.11% (second compound 0.003 µM, first compound 0.949 µM); 0.19% (second compound 0.003 µM, first compound 3 µM).
